Results taken from patent US20230159445A1, “STAT INHIBITORY COMPOUNDS AND COMPOSITIONS” (JANPIX LIMITED, priority 2020, published 2023).
Like-named read-outs stand apart in the source and are kept apart here.

Assays:
[1] = system: glutathione (GSH); test: Reactivity Profiling with Glutathione (GSH), half-life by HPLC; settings: 5 mM glutathione (GSH) in IMDM with 10% FBS
[2] = system: MV4-11 cells; test: MV4-11 Cell Cytotoxicity Assay (CellTiter-Blue, 72 h); type: cell-based, human; settings: Homo sapiens
How it was run: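 Cells seeded 24 h before treatment, then exposed 72 h at 37° C, 5% CO2 to inhibitors in triplicate, top concentration 50 μM with 1:2 serial dilutions (0.5% DMSO vehicle). Viability read by CellTiter-Blue fluorescence at 560/590 nm after 1 h.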

[3] = system: normal human fibroblast (NHF) cells; test: NHF Cell Cytotoxicity Assay (CellTiter-Blue, 72 h), off-target effects; type: cell-based; settings: Homo sapiens, Fibroblast; pooled NHF cells
How it was run: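 Normal human fibroblasts (1×10^4/well, 10% FBS medium) were treated after 24 h with inhibitor at 0.097656-50 μM for 72 h at 37° C. Viability was read by CellTiter-Blue fluorescence (560/590 nm), normalized to DMSO control, and IC50 obtained from a variable-slope log(inhibitor)-response fit of four replicates.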

[4] = Reactivity Profiling with Glutathione (GSH), half-life by HPLC; settings: 5 mM glutathione, 25° C., HPLC
[5] = MV4-11 cells, 72 h, CellTiter-Blue, read-out: IC50- MV-4-11

SMILES | half-life at 25 μM [1] [h] | IC50 ([2]; MV4-11, MV-4-11 cells) [nM] | IC50 [3] [µM] | Tl/2- GSH [4] | IC50 [2, 5] [nM]
CCOc1cc(C(=O)O)cc(F)c1N(Cc1cc(C2CC2)cc(C2CC2)c1)C(=O)CN(Cc1ccccc1C#N)S(=O)(=O)c1c(F)c(F)c(F)c(F)c1F [Compound 1274, 4-(2-((N-(2-cyanobenzyl)-2,3,4,5,6-pentafluorophenyl)sulfonamido)-N-(3,5-dicyclopropylbenzyl)acetamido)-3-ethoxy-5-fluorobenzoic acid] | 2.37 to 4.12 | 0.01 to 316 | 10 to 20 | – | –
CCOc1cc(C(=O)O)cc(F)c1N(Cc1cc(C2CC2)cc(C2CC2)c1)C(=O)CN(Cc1ccc(F)cc1Cl)S(=O)(=O)c1c(F)c(F)c(F)c(F)c1F [Compound 1276, 4-(2-((N-(2-chloro-4-fluorobenzyl)-2,3,4,5,6-pentafluorophenyl)sulfonamido)-N-(3,5-dicyclopropylbenzyl)acetamido)-3-ethoxy-5-fluorobenzoic acid] | 4.12 to 9.23 | 0.01 to 316 | 10 to 20 | – | –
CCOc1cc(C(=O)O)ccc1N(Cc1cc(C2CC2)cc(C(C)(C)C)c1)C(=O)CN(Cc1cnccc1Cl)S(=O)(=O)c1c(F)c(F)c(F)c(F)c1F [Compound 1277, 4-(N-(3-(tert-butyl)-5-cyclopropylbenzyl)-2-((N-((4-chloropyridin-3-yl)methyl)-2,3,4,5,6-pentafluorophenyl)sulfonamido)acetamido)-3-ethoxybenzoic acid] | 0.00167 to 2.37 | 0.01 to 316 | 0.001 to 10 | – | –
CCOc1cc(C(=O)O)ccc1N(Cc1cc(C2CC2)cc(C2CC2)c1)C(=O)CN(Cc1ccccc1Cl)S(=O)(=O)c1c(F)c(F)c(F)c(F)c1F [Compound 1278, 4-(2-((N-(2-chlorobenzyl)-2,3,4,5,6-pentafluorophenyl)sulfonamido)-N-(3,5-dicyclopropylbenzyl)acetamido)-3-ethoxybenzoic acid] | 2.37 to 4.12 | 0.01 to 316 | 10 to 20 | – | –
N#Cc1ccccc1CN(CC(=O)N(Cc1cc(C2CC2)cc(C2CC2)c1)c1ccc(C(=O)O)cc1OC1CCCC1)S(=O)(=O)c1c(F)c(F)c(F)c(F)c1F [Compound 1279, 4-(2-((N-(2-cyanobenzyl)-2,3,4,5,6-pentafluorophenyl)sulfonamido)-N-(3,5-dicyclopropylbenzyl)acetamido)-3-(cyclopentyloxy)benzoic acid] | 4.12 to 9.23 | 0.01 to 316 | 10 to 20 | – | –
CC(C)Oc1cc(C(=O)O)ccc1N(Cc1cc(C2CC2)cc(C2CC2)c1)C(=O)CN(Cc1ccccc1C#N)S(=O)(=O)c1c(F)c(F)c(F)c(F)c1F [Compound 1280, 4-(2-((N-(2-cyanobenzyl)-2,3,4,5,6-pentafluorophenyl)sulfonamido)-N-(3,5-dicyclopropylbenzyl)acetamido)-3-isopropoxybenzoic acid] | 2.37 to 4.12 | 0.01 to 316 | 10 to 20 | – | –
CCOc1cc(C(=O)O)ccc1N(Cc1cc(C2CC2)cc(N2CCCC2)c1)C(=O)CN(Cc1ccccc1C#N)S(=O)(=O)c1c(F)c(F)c(F)c(F)c1F [Compound 1281, 4-(2-((N-(2-cyanobenzyl)-2,3,4,5,6-pentafluorophenyl)sulfonamido)-N-(3-cyclopropyl-5-(pyrrolidin-1-yl)benzyl)acetamido)-3-ethoxybenzoic acid] | 2.37 to 4.12 | 0.01 to 316 | 10 to 20 | – | –
CC(C)(C)c1cc(CN(C(=O)CN(Cc2ccc(Cl)cc2)S(=O)(=O)c2c(F)c(F)c(F)c(F)c2F)c2ccc(C(=O)O)c(O)c2)cc(C(C)(C)C)c1 [Compound 2001, 4-(2-(N-(4-chlorobenzyl)-(2,3,4,5,6-pentafluorophenyl)sulfon-amido)-N-(3,5-di-tert-butylbenzyl)acetamido)-2-hydroxybenzoic acid] | – | – | – | B (247≤B<554) | 3160 to 100000
O=C(O)c1ccc(N(Cc2ccccc2)C(=O)CN(Cc2ccc(Cl)cc2)S(=O)(=O)c2c(F)c(F)c(F)c(F)c2F)cc1O [Compound 2004, 4-(N-benzyl-2-(N-(4-chlorobenzyl)-(2,3,4,5,6-pentafluorophenyl)sulfon-amido)acetamido)-2-hydroxybenzoic acid] | – | – | – | D (0.1<D<142) | 3160 to 100000
CC(C)(C)c1cc(CN(C(=O)CN(Cc2ccccc2F)S(=O)(=O)c2c(F)c(F)c(F)c(F)c2F)c2ccc(C(=O)O)c(O)c2)cc(C(C)(C)C)n1 [Compound 2015, 4-(N-((2,6-di-tert-butylpyridin-4-yl)methyl)-2-(N-(2-fluorobenzyl)-(2,3,4,5,6-pentafluoro-phenyl)sulfonamido)acetami-do)-2-hydroxybenzoic acid] | – | – | – | C (142≤C<247) | 3160 to 100000
CN(C(=O)CN(Cc1ccccc1C(F)(F)F)S(=O)(=O)c1c(F)c(F)c(F)c(F)c1F)c1ccc(C(=O)O)cc1OC1CC1 [Compound 2016, 3-cyclopropoxy-4-(N-methyl-2-(N-(2-(trifluoromethyl)benzyl)-(2,3,4,5,6-pentafluoro-phenyl)sulfonamido)acetami-do)benzoic acid] | – | – | – | D (0.1<D<142) | 1000 to 3160
CN(C(=O)CN(Cc1ccccc1C(F)(F)F)S(=O)(=O)c1c(F)c(F)c(F)c(F)c1F)c1ccc(C(=O)O)cc1N1CCOCC1 [Compound 2017, 4-(N-methyl-2-(N-(2-(trifluoromethyl)benzyl)-(2,3,4,5,6-pentafluoro-phenyl)sulfonamido)acetami-do)-3-morpholinobenzoic acid] | – | – | – | D (0.1<D<142) | 1000 to 3160
CC(C)(C)c1cc(CN(C(=O)CN(Cc2ccc(Cl)cc2)S(=O)(=O)c2c(F)c(F)c(F)c(F)c2F)c2ccc(C(=O)O)c(O)c2)cc(C2CCC2)c1 [Compound 2020, 4-(N-(3-(tert-butyl)-5-cyclobutylbenzyl)-2-(N-(4-chlorobenzyl)-(2,3,4,5,6-pentafluorophenyl)sulfon-amido)acetamido)-2-hydroxybenzoic acid] | – | – | – | B (247≤B<554) | 3160 to 100000
